Measurements taken from the supplement of paper PMC9663587.

Tests used:
[1] = compound: CCN1CCN(Cc2ccc(Nc3ncc(F)c(-c4cc(F)c5nc(C)n(C(C)C)c5c4)n3)nc2)CC1; test: GR value, 72 h; higher = faster growth (1 = untreated, <0 = killing);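 note: breast cancer and non-malignant breast epithelial lines, nine half-log doses, viable cells counted by Hoechst and LIVE/DEAD dye imaging versus time-zero plates and DMSO controls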
THZ1 = compound: CN(C)C/C=C/C(=O)Nc1ccc(C(=O)Nc2cccc(Nc3ncc(Cl)c(-c4c[nH]c5ccccc45)n3)c2)cc1 [THZ1]; test: as above
BSJ-03-123 = compound: CC(=O)c1c(C)c2cnc(Nc3ccc(N4CCN(CCOCCOCCOCCNC(=O)COc5cccc6c5C(=O)N(C5CCC(=O)NC5=O)C6=O)CC4)cn3)nc2n(C2CCCC2)c1=O [BSJ-03-123]; test: as above
LEE011/Ribociclib = compound: CN(C)C(=O)c1cc2cnc(Nc3ccc(N4CCNCC4)cn3)nc2n1C1CCCC1 [LEE011/Ribociclib]; test: as above
YKL-5-124 = compound: C=CC(=O)Nc1ccc(C(=O)Nc2[nH]nc3c2CN(C(=O)N[C@H](CN(C)C)c2ccccc2)C3(C)C)cc1 [YKL-5-124]; test: as above
THZ531 [2] = compound: T1, CN(C)C/C=C/C(=O)Nc1ccc(C(=O)N2CCC[C@@H](Nc3ncc(Cl)c(-c4c[nH]c5ccccc45)n3)C2)cc1 [THZ531]; test: as above
[3] = compound: CC(=O)c1c(C)c2cnc(Nc3ccc(N4CCNCC4)cn3)nc2n(C2CCCC2)c1=O; test: as above
[4] = compound: CCc1cnn2c(NCc3ccc[n+]([O-])c3)cc(N3CCCC[C@H]3CCO)nc12; test: as above
Ceritinib/LDK378 = compound: Cc1cc(Nc2ncc(Cl)c(Nc3ccccc3S(=O)(=O)C(C)C)n2)c(OC(C)C)cc1C1CCNCC1 [Ceritinib/LDK378]
Rucaparib = compound: CNCc1ccc(-c2[nH]c3cc(F)cc4c3c2CCNC4=O)cc1 [Rucaparib]
THZ531 [5] = compound: T1, THZ531
senexin b = compound: CN1CCN(C(=O)c2ccc3cc(CCNc4ncnc5ccc(C#N)cc45)ccc3c2)CC1 [senexin b]
Tivantinib/ARQ197 = compound: O=C1NC(=O)[C@@H](c2cn3c4c(cccc24)CCC3)[C@@H]1c1c[nH]c2ccccc12 [Tivantinib/ARQ197]
Pictilisib/GDC0941 = compound: CS(=O)(=O)N1CCN(Cc2cc3nc(-c4cccc5[nH]ncc45)nc(N4CCOCC4)c3s2)CC1 [Pictilisib/GDC0941]
BSJ-01-175 = compound: CN(C)C/C=C/C(=O)Nc1ccc(O[C@@H]2CCC[C@@H](Nc3ncc(Cl)c(-c4c[nH]c5ccccc45)n3)C2)cc1 [BSJ-01-175]
AZD6738 = compound: C[C@@H]1COCCN1c1cc(C2([S@](C)(=N)=O)CC2)nc(-c2cc[nH]c3nccc2-3)n1 [AZD6738]
Paclitaxel = compound: CC(=O)O[C@H]1C(=O)[C@@]2(C)[C@H]([C@H](OC(=O)c3ccccc3)[C@]3(O)C[C@H](OC(=O)[C@H](O)[C@@H](NC(=O)c4ccccc4)c4ccccc4)C(C)=C1C3(C)C)[C@]1(OC(C)=O)CO[C@@H]1C[C@@H]2O [Paclitaxel]
Cediranib/AZD2171 = compound: COc1cc2c(Oc3ccc4[nH]c(C)cc4c3F)ncnc2cc1OCCCN1CCCC1 [Cediranib/AZD2171]
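Throughout, for GR50, 72 h: breast cancer and non-malignant breast epithelial cell lines, Deep Dye Drop or Dye Drop imaging, nine half-log doses, GR normalized to time-zero plates and DMSO-only controls.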

For MDAMB453, the GR value ([1]; 0.001 µM) was 0.908 GR, the GR value ([1]; 0.003162 µM) was 0.615 GR and the GR value ([1]; 0.01 µM) was 0.211 GR. For the same cell line, the GR value ([1]; 0.03162 µM) was 0.0514 GR, the GR value ([1]; 0.1 µM) was 0.0343 GR and the GR value ([1]; 0.3162 µM) was 0.0775 GR. For the same cell line, the GR value ([1]; 1 µM) was 0.0548 GR, the GR value ([1]; 3.162 µM) was 0.0127 GR and the GR value ([1]; 10 µM) was -0.787 GR. For the same cell line, the GR value (THZ1; 0.0001 µM) was 1 GR, the GR value (THZ1; 0.0003162 µM) was 0.935 GR and the GR value (THZ1; 0.001 µM) was 1.04 GR. It also gave a GR value (THZ1; 0.003162 µM) of 0.716 GR, a GR value (THZ1; 0.01 µM) of 0.61 GR and a GR value (THZ1; 0.03162 µM) of 0.0146 GR. The GR value (THZ1; 0.1 µM) was -0.0991 GR, the GR value (THZ1; 0.3162 µM) was -0.106 GR and the GR value (THZ1; 1 µM) was -0.277 GR. It also gave a GR value (BSJ-03-123; 0.001 µM) of 0.989 GR, a GR value (BSJ-03-123; 0.003162 µM) of 0.922 GR and a GR value (BSJ-03-123; 0.01 µM) of 0.874 GR. The GR value (BSJ-03-123; 0.03162 µM) was 0.843 GR, the GR value (BSJ-03-123; 0.1 µM) was 0.841 GR and the GR value (BSJ-03-123; 0.3162 µM) was 0.699 GR. The GR value (BSJ-03-123; 1 µM) was 0.639 GR, the GR value (BSJ-03-123; 3.162 µM) was 0.575 GR and the GR value (BSJ-03-123; 10 µM) was -0.011 GR. For the same cell line, the GR value (LEE011/Ribociclib; 0.001 µM) was 0.717 GR, the GR value (LEE011/Ribociclib; 0.003162 µM) was 0.647 GR and the GR value (LEE011/Ribociclib; 0.01 µM) was 0.562 GR. It also gave a GR value (LEE011/Ribociclib; 0.03162 µM) of 0.637 GR, a GR value (LEE011/Ribociclib; 0.1 µM) of 0.461 GR and a GR value (LEE011/Ribociclib; 0.3162 µM) of 0.365 GR. For the same cell line, the GR value (LEE011/Ribociclib; 1 µM) was 0.273 GR, the GR value (LEE011/Ribociclib; 3.162 µM) was 0.225 GR and the GR value (LEE011/Ribociclib; 10 µM) was 0.208 GR. For the same cell line, the GR value (YKL-5-124; 0.001 µM) was 0.574 GR, the GR value (YKL-5-124; 0.003162 µM) was 0.333 GR and the GR value (YKL-5-124; 0.01 µM) was 0.209 GR. The GR value (YKL-5-124; 0.03162 µM) was 0.209 GR, the GR value (YKL-5-124; 0.1 µM) was 0.143 GR and the GR value (YKL-5-124; 0.3162 µM) was 0.0956 GR. For the same cell line, the GR value (YKL-5-124; 1 µM) was 0.128 GR, the GR value (YKL-5-124; 3.162 µM) was 0.143 GR and the GR value (YKL-5-124; 10 µM) was -0.503 GR. For the same cell line, the GR value (THZ531 [2]; 0.0001 µM) was 1.1 GR, the GR value (THZ531 [2]; 0.0003162 µM) was 0.965 GR and the GR value (THZ531 [2]; 0.001 µM) was 0.877 GR. It also gave a GR value (THZ531 [2]; 0.003162 µM) of 0.996 GR, a GR value (THZ531 [2]; 0.01 µM) of 0.851 GR and a GR value (THZ531 [2]; 0.03162 µM) of 0.38 GR. The GR value (THZ531 [2]; 0.1 µM) was -0.333 GR, the GR value (THZ531 [2]; 0.3162 µM) was -0.27 GR and the GR value (THZ531 [2]; 1 µM) was -0.266 GR. It also gave a GR value ([3]; 0.0003162 µM) of 1.08 GR, a GR value ([3]; 0.001 µM) of 1.06 GR and a GR value ([3]; 0.003162 µM) of 0.994 GR. The GR value ([3]; 0.01 µM) was 0.851 GR, the GR value ([3]; 0.03162 µM) was 0.607 GR and the GR value ([3]; 0.1 µM) was 0.278 GR. For the same cell line, the GR value ([3]; 0.3162 µM) was 0.105 GR, the GR value ([3]; 1 µM) was 0.0968 GR and the GR value ([3]; 3.162 µM) was 0.0641 GR. The GR value ([4]; 0.0001 µM) was 1.05 GR, the GR value ([4]; 0.0003162 µM) was 1.06 GR and the GR value ([4]; 0.001 µM) was 1.04 GR. For the same cell line, the GR value ([4]; 0.003162 µM) was 1.03 GR, the GR value ([4]; 0.01 µM) was 0.645 GR and the GR value ([4]; 0.03162 µM) was -0.173 GR. For the same cell line, the GR value ([4]; 0.1 µM) was -0.28 GR, the GR value ([4]; 0.3162 µM) was -0.238 GR and the GR value ([4]; 1 µM) was -0.242 GR. For the same cell line, the “GR50, 72 h” value (Ceritinib/LDK378) was 0.37 µM, the “GR50, 72 h” value (Rucaparib) was 6.58 µM and the “GR50, 72 h” value (THZ531 [5]) was 0.0236 µM. For the same cell line, the “GR50, 72 h” value (senexin b) was 3.93 µM, the “GR50, 72 h” value (Tivantinib/ARQ197) was 0.201 µM and the “GR50, 72 h” value (Pictilisib/GDC0941) was 0.455 µM. For the same cell line, the “GR50, 72 h” value (BSJ-01-175) was 0.00336 µM, the “GR50, 72 h” value (AZD6738) was 4.74 µM and the “GR50, 72 h” value (Paclitaxel) was 0.00247 µM. The “GR50, 72 h” value (Cediranib/AZD2171) was 2.79 µM.
